Assay results from ChEMBL document CHEMBL4507260 (2021).

Columns and labels:
Settings in all cases: Compound concentration 1000.0 nM
[1] = molecular target: Dual serine/threonine and tyrosine protein kinase (Homo sapiens) (UniProt Q6XUX3)
[2] = test system: ALK tyrosine kinase receptor (Homo sapiens), Q9UM73 [C1156Y]
[3] = molecular target: TGF-beta receptor type-2 (Homo sapiens) (UniProt P37173)
[4] = molecular target: Mitogen-activated protein kinase kinase kinase 1 (Homo sapiens) (UniProt Q13233)
[5] = molecular target: MAP kinase-interacting serine/threonine-protein kinase 1 (Homo sapiens) (UniProt Q9BUB5)
[6] = molecular target: Ephrin type-A receptor 2 (Homo sapiens) (UniProt P29317)
[7] = molecular target: RAC-alpha serine/threonine-protein kinase (Homo sapiens) (UniProt P31749)
[8] = molecular target: Mitogen-activated protein kinase kinase kinase 5 (Homo sapiens) (UniProt Q99683)
[9] = test system: Mast/stem cell growth factor receptor Kit (Homo sapiens), P10721 [V559D,V654A]
[10] = molecular target: Wee1-like protein kinase 2 (Homo sapiens) (UniProt P0C1S8)
[11] = molecular target: Serine/threonine-protein kinase Sgk2 (Homo sapiens) (UniProt Q9HBY8)
[12] = molecular target: Inhibitor of nuclear factor kappa-B kinase subunit alpha (Homo sapiens) (UniProt O15111)
[13] = molecular target: Receptor-type tyrosine-protein kinase FLT3 (Homo sapiens) (UniProt P36888)
[14] = test system: Epidermal growth factor receptor (Homo sapiens), P00533 [L858R]
[15] = test system: Proto-oncogene tyrosine-protein kinase receptor Ret (Homo sapiens), P07949 [V804M]
[16] = molecular target: Serine/threonine-protein kinase PAK 6 (Homo sapiens) (UniProt Q9NQU5)
[17] = molecular target: Serine/threonine-protein kinase TAO1 (Homo sapiens) (UniProt Q7L7X3)
[18] = test system: Tyrosine-protein kinase ABL1 (Homo sapiens), P00519 [H396P]
[19] = molecular target: Phosphatidylinositol 4,5-bisphosphate 3-kinase catalytic subunit beta isoform (Homo sapiens) (UniProt P42338)
[20] = molecular target: Serine/threonine-protein kinase Nek4 (Homo sapiens) (UniProt P51957)
[21] = molecular target: Cyclin-dependent kinase 4 (Homo sapiens) (UniProt P11802)
[22] = molecular target: Serine/threonine-protein kinase SIK2 (Homo sapiens) (UniProt Q9H0K1)
[23] = molecular target: Non-receptor tyrosine-protein kinase TYK2 (Homo sapiens) (UniProt P29597)
[24] = molecular target: Serine/threonine-protein kinase 38-like (Homo sapiens) (UniProt Q9Y2H1)
[25] = molecular target: Serine/threonine-protein kinase Chk1 (Homo sapiens) (UniProt O14757)
[26] = molecular target: Tyrosine-protein kinase HCK (Homo sapiens) (UniProt P08631)
[27] = molecular target: Serine/threonine-protein kinase haspin (Homo sapiens) (UniProt Q8TF76)
[28] = molecular target: Serine/threonine-protein kinase DCLK2 (Homo sapiens) (UniProt Q8N568)
[29] = molecular target: Peripheral plasma membrane protein CASK (Homo sapiens) (UniProt O14936)
[30] = molecular target: SNF-related serine/threonine-protein kinase (Homo sapiens) (UniProt Q9NRH2)
[31] = molecular target: Death-associated protein kinase 2 (Homo sapiens) (UniProt Q9UIK4)
[32] = molecular target: Angiopoietin-1 receptor (Homo sapiens) (UniProt Q02763)
[33] = molecular target: Casein kinase I isoform alpha-like (Homo sapiens) (UniProt Q8N752)
[34] = molecular target: Mitogen-activated protein kinase kinase kinase kinase 5 (Homo sapiens) (UniProt Q9Y4K4)
[35] = molecular target: Cyclin-dependent kinase 4 (Homo sapiens) (UniProt P11802); remark: listed apart in the source
[36] = molecular target: Ribosomal protein S6 kinase alpha-6 (Homo sapiens) (UniProt Q9UK32)
[37] = molecular target: Serine/threonine-protein kinase ULK2 (Homo sapiens) (UniProt Q8IYT8)
[38] = molecular target: Serine/threonine-protein kinase PLK2 (Homo sapiens) (UniProt Q9NYY3)
[39] = molecular target: Mitogen-activated protein kinase kinase kinase 2 (Homo sapiens) (UniProt Q9Y2U5)
[40] = molecular target: Cyclin-dependent kinase 3 (Homo sapiens) (UniProt Q00526)
[41] = test system: Receptor-type tyrosine-protein kinase FLT3 (Homo sapiens), P36888 [UNDEFINED MUTATION]
[42] = molecular target: Myosin light chain kinase (Homo sapiens) (UniProt Q32MK0)
[43] = molecular target: Inhibitor of nuclear factor kappa-B kinase subunit epsilon (Homo sapiens) (UniProt Q14164)
[44] = molecular target: Mitogen-activated protein kinase kinase kinase kinase 3 (Homo sapiens) (UniProt Q8IVH8)
[45] = molecular target: Serine/threonine-protein kinase PAK 3 (Homo sapiens) (UniProt O75914)

Measured: residual activity

Cyclin-dependent kinase 4 (Homo sapiens), sequence (P11802 whole entry): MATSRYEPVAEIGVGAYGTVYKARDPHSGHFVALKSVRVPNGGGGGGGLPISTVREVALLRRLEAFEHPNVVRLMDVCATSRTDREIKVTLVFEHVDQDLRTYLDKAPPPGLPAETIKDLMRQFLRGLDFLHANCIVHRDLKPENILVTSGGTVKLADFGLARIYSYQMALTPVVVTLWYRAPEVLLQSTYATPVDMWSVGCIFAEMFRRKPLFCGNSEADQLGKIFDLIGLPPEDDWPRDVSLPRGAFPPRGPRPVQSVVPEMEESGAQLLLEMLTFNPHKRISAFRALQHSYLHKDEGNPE
Phosphatidylinositol 4,5-bisphosphate 3-kinase catalytic subunit beta isoform (Homo sapiens), sequence (P42338 whole entry, looked up, canonical isoform): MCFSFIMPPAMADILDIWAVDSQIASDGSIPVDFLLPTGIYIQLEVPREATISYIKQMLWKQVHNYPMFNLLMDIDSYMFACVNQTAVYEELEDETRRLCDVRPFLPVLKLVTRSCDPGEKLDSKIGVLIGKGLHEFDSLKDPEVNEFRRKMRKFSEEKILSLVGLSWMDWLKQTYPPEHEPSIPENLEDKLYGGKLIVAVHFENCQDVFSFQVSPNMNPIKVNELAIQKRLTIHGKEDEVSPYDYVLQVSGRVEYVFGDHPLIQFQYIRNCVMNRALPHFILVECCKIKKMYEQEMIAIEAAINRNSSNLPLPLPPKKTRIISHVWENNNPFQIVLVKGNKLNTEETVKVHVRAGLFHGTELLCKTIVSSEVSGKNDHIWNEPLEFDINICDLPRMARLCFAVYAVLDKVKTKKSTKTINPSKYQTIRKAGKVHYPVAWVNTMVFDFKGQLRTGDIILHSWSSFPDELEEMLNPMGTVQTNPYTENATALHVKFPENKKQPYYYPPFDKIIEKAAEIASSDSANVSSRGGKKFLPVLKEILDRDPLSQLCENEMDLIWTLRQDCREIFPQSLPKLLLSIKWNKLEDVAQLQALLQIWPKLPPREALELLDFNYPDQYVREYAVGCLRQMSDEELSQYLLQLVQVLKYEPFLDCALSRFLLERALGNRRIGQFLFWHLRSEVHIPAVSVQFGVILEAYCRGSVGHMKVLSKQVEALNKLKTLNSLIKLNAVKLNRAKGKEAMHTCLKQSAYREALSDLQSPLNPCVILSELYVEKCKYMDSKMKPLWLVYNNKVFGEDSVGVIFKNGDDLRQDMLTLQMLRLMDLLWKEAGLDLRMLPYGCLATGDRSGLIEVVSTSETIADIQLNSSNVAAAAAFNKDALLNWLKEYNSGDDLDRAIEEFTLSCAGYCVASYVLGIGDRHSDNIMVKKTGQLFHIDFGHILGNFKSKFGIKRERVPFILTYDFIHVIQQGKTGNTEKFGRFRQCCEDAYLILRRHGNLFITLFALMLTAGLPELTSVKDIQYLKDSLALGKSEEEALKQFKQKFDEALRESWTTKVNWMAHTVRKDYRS
Serine/threonine-protein kinase 38-like (Homo sapiens), sequence (Q9Y2H1 2-464 limits assumed): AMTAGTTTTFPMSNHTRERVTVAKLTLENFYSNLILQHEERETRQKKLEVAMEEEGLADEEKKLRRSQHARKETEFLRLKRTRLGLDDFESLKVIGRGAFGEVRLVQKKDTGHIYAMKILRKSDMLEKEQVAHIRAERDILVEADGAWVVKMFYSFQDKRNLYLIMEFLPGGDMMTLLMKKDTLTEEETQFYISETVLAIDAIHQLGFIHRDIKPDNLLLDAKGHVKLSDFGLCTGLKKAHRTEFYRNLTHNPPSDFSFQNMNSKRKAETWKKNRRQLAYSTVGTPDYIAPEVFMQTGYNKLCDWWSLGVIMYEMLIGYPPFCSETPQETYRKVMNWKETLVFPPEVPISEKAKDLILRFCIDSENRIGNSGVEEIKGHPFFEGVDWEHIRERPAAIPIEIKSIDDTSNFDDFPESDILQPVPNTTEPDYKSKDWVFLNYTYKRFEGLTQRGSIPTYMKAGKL
Ephrin type-A receptor 2 (Homo sapiens), sequence (P29317 whole entry): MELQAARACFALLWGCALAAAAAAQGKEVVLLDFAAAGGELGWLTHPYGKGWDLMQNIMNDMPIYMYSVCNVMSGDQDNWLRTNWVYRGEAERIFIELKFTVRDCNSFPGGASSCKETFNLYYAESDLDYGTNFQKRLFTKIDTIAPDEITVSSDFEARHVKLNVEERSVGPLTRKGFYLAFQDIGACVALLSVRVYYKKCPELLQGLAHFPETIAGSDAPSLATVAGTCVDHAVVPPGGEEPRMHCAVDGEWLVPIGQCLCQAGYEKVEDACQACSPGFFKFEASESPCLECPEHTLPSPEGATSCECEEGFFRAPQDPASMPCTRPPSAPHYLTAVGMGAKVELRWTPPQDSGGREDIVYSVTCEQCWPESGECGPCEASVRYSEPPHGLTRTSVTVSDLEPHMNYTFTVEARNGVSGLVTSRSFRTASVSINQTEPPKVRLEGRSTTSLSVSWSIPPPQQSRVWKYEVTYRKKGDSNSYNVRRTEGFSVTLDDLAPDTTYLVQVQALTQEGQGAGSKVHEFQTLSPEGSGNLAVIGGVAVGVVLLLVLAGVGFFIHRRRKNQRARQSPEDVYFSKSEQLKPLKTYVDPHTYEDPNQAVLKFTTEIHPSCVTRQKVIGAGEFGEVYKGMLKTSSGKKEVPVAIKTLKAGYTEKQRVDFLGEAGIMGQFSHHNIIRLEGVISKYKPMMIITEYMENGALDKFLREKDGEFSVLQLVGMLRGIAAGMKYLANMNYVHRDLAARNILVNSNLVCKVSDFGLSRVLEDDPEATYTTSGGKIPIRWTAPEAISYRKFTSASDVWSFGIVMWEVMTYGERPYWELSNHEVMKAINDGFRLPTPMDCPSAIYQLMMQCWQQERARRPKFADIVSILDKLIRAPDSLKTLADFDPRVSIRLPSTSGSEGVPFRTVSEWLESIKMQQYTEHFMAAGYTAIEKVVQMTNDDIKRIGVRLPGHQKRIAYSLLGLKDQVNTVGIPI
Dual serine/threonine and tyrosine protein kinase (Homo sapiens), sequence (Q6XUX3 whole entry): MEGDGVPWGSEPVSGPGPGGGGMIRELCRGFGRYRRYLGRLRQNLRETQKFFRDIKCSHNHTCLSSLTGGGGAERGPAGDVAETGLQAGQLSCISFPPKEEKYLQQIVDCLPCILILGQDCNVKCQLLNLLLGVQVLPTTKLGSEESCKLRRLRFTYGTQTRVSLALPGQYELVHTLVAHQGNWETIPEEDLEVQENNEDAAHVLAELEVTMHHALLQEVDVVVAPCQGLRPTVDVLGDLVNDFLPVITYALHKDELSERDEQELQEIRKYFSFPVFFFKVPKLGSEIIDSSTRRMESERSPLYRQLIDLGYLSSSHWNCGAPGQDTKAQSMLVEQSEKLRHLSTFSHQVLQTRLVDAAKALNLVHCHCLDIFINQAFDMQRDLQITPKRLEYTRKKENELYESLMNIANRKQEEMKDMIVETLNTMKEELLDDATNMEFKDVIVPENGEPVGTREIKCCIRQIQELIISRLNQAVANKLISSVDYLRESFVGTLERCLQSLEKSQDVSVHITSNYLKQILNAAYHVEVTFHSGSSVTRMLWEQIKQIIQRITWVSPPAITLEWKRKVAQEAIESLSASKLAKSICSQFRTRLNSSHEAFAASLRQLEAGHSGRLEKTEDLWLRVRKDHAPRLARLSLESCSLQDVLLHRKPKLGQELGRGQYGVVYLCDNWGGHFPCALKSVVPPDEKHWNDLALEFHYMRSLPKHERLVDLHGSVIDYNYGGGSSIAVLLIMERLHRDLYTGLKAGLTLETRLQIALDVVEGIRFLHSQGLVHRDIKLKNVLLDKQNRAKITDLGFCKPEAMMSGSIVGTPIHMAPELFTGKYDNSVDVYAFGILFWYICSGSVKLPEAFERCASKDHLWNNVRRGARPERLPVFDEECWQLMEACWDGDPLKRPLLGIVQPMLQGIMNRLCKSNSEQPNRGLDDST
Inhibitor of nuclear factor kappa-B kinase subunit alpha (Homo sapiens), sequence (O15111 whole entry): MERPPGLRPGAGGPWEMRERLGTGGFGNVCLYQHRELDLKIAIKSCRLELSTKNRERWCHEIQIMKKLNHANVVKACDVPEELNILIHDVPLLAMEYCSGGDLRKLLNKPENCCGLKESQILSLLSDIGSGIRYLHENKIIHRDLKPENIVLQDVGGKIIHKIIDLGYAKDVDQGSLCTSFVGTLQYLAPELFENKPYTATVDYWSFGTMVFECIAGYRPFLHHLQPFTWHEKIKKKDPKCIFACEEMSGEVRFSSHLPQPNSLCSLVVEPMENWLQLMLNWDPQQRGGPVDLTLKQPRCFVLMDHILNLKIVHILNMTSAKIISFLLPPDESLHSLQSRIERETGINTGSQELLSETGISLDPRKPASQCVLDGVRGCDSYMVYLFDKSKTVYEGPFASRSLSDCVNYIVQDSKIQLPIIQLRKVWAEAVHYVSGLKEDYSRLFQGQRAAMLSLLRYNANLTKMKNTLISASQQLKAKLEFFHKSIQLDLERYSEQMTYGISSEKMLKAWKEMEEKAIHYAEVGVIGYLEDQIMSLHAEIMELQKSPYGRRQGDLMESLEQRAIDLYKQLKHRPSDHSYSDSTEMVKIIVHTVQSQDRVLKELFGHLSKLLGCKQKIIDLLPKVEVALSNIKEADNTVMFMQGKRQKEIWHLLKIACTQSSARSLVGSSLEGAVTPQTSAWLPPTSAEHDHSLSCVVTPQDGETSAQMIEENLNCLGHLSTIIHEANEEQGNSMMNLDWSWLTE
MAP kinase-interacting serine/threonine-protein kinase 1 (Homo sapiens), sequence (Q9BUB5 whole entry, looked up): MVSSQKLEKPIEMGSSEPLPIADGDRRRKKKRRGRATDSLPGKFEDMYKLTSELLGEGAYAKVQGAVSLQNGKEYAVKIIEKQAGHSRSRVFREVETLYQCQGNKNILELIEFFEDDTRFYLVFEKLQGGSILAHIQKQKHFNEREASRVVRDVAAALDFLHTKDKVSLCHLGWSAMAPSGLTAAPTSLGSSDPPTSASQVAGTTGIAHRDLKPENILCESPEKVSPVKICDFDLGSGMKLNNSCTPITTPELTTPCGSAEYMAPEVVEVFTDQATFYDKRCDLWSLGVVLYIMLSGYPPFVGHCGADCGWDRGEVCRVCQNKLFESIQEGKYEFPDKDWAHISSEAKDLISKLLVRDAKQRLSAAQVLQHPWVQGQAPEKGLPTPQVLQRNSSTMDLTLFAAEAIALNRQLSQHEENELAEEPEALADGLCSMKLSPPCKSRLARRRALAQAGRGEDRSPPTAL

CSc1cccnc1N1CCN(Cc2nc3ccccc3[nH]2)CC1 [A-769]
inactive: [1] 76% | [2] 93% | [3] 99% | [4] 70% | [5] 98% | [6] 100% | [7] 100% | [8] 98% | [9] 100% | [10] 100% | [11] 81% | [12] 98% | [13] 91% | [14] 100% | [15] 100% | [16] 100% | [17] 100% | [18] 77% | [19] 74% | [20] 88% | [21] 82% | [22] 100% | [23] 84% | [24] 100% | [25] 94% | [26] 82% | [27] 100% | [28] 100% | [29] 100% | [30] 100% | [31] 100% | [32] 100% | [33] 100% | [34] 100% | [35] 77% | [36] 81% | [37] 94% | [38] 71% | [39] 82% | [40] 100% | [41] 100% | [42] 100% | [43] 81% | [44] 100% | [45] 87%

c1ccc(N2CCN(Cc3nc4ccccc4[nH]3)CC2)nc1 [ABT-724]
inactive: [1] 100% | [2] 100% | [3] 88% | [4] 99% | [5] 91% | [6] 100% | [7] 90% | [8] 93% | [9] 100% | [10] 100% | [11] 100% | [12] 100% | [13] 100% | [14] 100% | [15] 100% | [16] 100% | [17] 100% | [18] 100% | [19] 100% | [20] 100% | [21] 100% | [22] 100% | [23] 100% | [24] 72% | [25] 100% | [26] 100% | [27] 100% | [28] 98% | [29] 97% | [30] 100% | [31] 86% | [32] 94% | [33] 100% | [34] 100% | [35] 100% | [36] 100% | [37] 100% | [38] 100% | [39] 100% | [40] 100% | [41] 100% | [42] 100% | [43] 100% | [44] 100% | [45] 100%
